Laboratory results published in patent publication US12655116B2, “Substituted isophthalic acid diamides” (Bayer Aktiengesellschaft, priority 2020, dated 2026).

Legend:
ALOMY [1] = assay: Pre-emergence herbicidal action against ALOMY; format: in vivo, Alopecurus myosuroides; conditions: 80 g/ha, pre-emergence, scored visually after 3 weeks vs untreated controls (100% = plants have died, 0% = like control plants)
In short: (§1)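 Greenhouse pots of sandy loam held seeds covered with soil, onto which the compound was applied before emergence. An aqueous suspension or emulsion of WP or EC was used at 600 to 800 l/ha with 0.2% wetting agent. Percent damage was judged visually at 3 weeks.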

AMARE [2] = assay: Pre-emergence herbicidal action against AMARE; format: in vivo, Amaranthus retroflexus
In short: as §1

ECHCG [3] = assay: Pre-emergence herbicidal action against ECHCG; format: in vivo, Echinochloa crus-galli
In short: as §1

MATIN [4] = assay: Pre-emergence herbicidal action against MATIN; format: in vivo, Matricaria inodora
In short: as §1

SETVI [5] = assay: Pre-emergence herbicidal action against SETVI; format: in vivo, Setaria viridis
In short: as §1

VIOTR [6] = assay: Pre-emergence herbicidal action against VIOTR; format: in vivo, Viola tricolor
In short: as §1

DIGSA [7] = assay: Pre-emergence herbicidal action against DIGSA; format: in vivo, Digitaria sanguinalis
In short: as §1

ECHCG [8] = assay: Post-emergence herbicidal action against ECHCG; format: in vivo, Echinochloa crus-galli
In short: (§2)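 A WP or EC formulation diluted in water with 0.2% wetting agent was sprayed at 600 to 800 l/ha onto one-leaf-stage plants grown in sandy loam. About 3 weeks later, action was rated visually in percent, 100% being dead plants.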

PHBPU = assay: Post-emergence herbicidal action against PHBPU; format: in vivo, Pharbitis purpurea
In short: as §2

VERPE [9] = assay: Post-emergence herbicidal action against VERPE; format: in vivo, Veronica persica; conditions: 20 g/ha
Procedure: (§3) Seeds of monocotyledonous and dicotyledonous weed and crop plants are laid out in sandy loam soil in wood-fiber pots, covered with soil and cultivated in a greenhouse under good growth conditions. 2 to 3 weeks after sowing, the test plants are treated at the one-leaf stage. The compounds of the invention, formulated in the form of wettable powders (WP) or as emulsion concentrates (EC), are then sprayed onto the green parts of the plants in the form of an aqueous suspension or emulsion at a water application rate equivalent to 600 to 800 l/ha, with addition of 0.2% wetting agent. After the test plants have been left to stand in the greenhouse under optimal growth conditions for about 3 weeks, the action of the preparations is assessed visually in comparison to untreated controls (herbicidal action in percent (%): 100% activity=the plants have died, 0% activity=like control plants). […] The tables below illustrate, in an illustrative manner, the post-emergence herbicidal action of the compounds of the invention, the herbicidal activity being stated in percent.

VIOTR [10] = assay: Post-emergence herbicidal action against VIOTR; format: in vivo, Viola tricolor; conditions: 20 g/ha
Procedure: as §3

ABUTH [11] = assay: Pre-emergence herbicidal action against ABUTH; format: in vivo, Abutilon theophrasti; conditions: for Pre-emergence action against ABUTH (herbicidal activity): 80 g/ha, scored visually after 3 weeks vs untreated controls (100% = plants have died, 0% = like control plants); for Pre-emergence action against ABUTH (herbicidal activity in percent): dosage 20 g/ha, scored visually after 3 weeks vs untreated controls, 100% = plants have died, 0% = like control plants
In short: as §1

ALOMY [12] = assay: Post-emergence herbicidal action against ALOMY; format: in vivo, Alopecurus myosuroides; conditions: dosage 20 g/ha, visual assessment about 3 weeks after treatment vs untreated controls
Procedure: as §3

AMARE [13] = assay: Post-emergence herbicidal action against AMARE; format: in vivo, Amaranthus retroflexus; conditions: 20 g/ha, visual assessment about 3 weeks after treatment, 100% = plants have died, 0% = like control plants
In short: as §2

VERPE [14] = assay: Pre-emergence herbicidal action against VERPE; format: in vivo, Veronica persica; conditions: dosage 80 g/ha
Excerpt: (§4) Seeds of monocotyledonous and dicotyledonous weed plants and crop plants are laid out in sandy loam soil in wood-fiber pots and covered with soil. The compounds of the invention, formulated in the form of wettable powders (WP) or as emulsion concentrates (EC), are then applied to the surface of the covering soil in the form of an aqueous suspension or emulsion at a water application rate equivalent to 600 to 800 l/ha, with addition of 0.2% wetting agent. After the treatment, the pots are placed in a greenhouse and kept under good growth conditions for the trial plants. The damage to the test plants is scored visually after a test period of 3 weeks by comparison with untreated controls (herbicidal activity in percent (%): 100% activity=the plants have died, 0% activity=like control plants). […] The tables below illustrate, in an illustrative manner, the post-emergence herbicidal action of the compounds of the invention, the herbicidal activity being stated in percent.

ABUTH [15] = assay: Post-emergence herbicidal action against ABUTH; format: in vivo, Abutilon theophrasti; conditions: visual assessment about 3 weeks after treatment vs untreated controls
In short: as §2

AVEFA = assay: Pre-emergence herbicidal action against AVEFA; format: in vivo, Avena fatua; conditions: 80 g/ha, pre-emergence
Excerpt: as §4

MATIN [16] = assay: Post-emergence herbicidal action against MATIN; format: in vivo, Matricaria inodora; conditions: dosage 20 g/ha
Procedure: as §3

SETVI [17] = assay: Post-emergence herbicidal action against SETVI; format: in vivo, Setaria viridis; conditions: dosage 20 g/ha
In short: as §2

DIGSA [18] = assay: Post-emergence herbicidal action against DIGSA; format: in vivo, Digitaria sanguinalis; conditions: for Post-emergence action against DIGSA: 20 g/ha
Procedure: as §3

[19] = 20 g/ha, scored visually after 3 weeks vs untreated controls, 100% = plants have died, 0% = like control plants
[20] = 80 g/ha, scored visually after 3 weeks vs untreated controls (100% = plants have died, 0% = like control plants)

SMILES	Pre-emergence action against ALOMY (herbicidal activity) (ALOMY [1])	Pre-emergence action against AMARE in % (AMARE [2]; [19])	Pre-emergence action against AMARE in % (AMARE [2]; [20])	Pre-emergence action against ECHCG in % (ECHCG [3]; 80 g/ha)	Pre-emergence action against MATIN in % (MATIN [4]; dosage 80 g/ha)	Pre-emergence action against SETVI in % (SETVI [5]; dosage 80 g/ha)	Pre-emergence action against VIOTR in % (VIOTR [6]; dosage 80 g/ha)	Pre-emergence action against DIGSA in % (DIGSA [7]; dosage 80 g/ha)	Post-emergence action against ECHCG in % (ECHCG [8]; dosage 20 g/ha)	Post-emergence action against PHBPU in % (PHBPU; dosage 20 g/ha)	Post-emergence action against VERPE in % (VERPE [9])	Pre-emergence action against ABUTH (herbicidal activity) (ABUTH [11])	Post-emergence action against ALOMY in % (ALOMY [12])	Post-emergence action at 20 g/ha against AMARE in % (AMARE [13])	Pre-emergence action against ABUTH (herbicidal activity in percent) (ABUTH [11])	Pre-emergence action against MATIN in % (MATIN [4]; dosage 20 g/ha)	Post-emergence action against ABUTH in % (ABUTH [15]; dosage 20 g/ha)	Post-emergence action against MATIN in % (MATIN [16])	Post-emergence action against SETVI in % (SETVI [17])	further results
Cc1c(C(=O)Nc2nnnn2C)ccc(C(F)(F)F)c1C(=O)NCC1CCCO1 (centres unmarked) [Example 1-37]	100%	100%	100%	80%	90%	100%	100%	100%	80%	80%	80%									Pre-emergence action against SETVI in % (SETVI [5]; dosage 20 g/ha): 90%; Pre-emergence action against DIGSA in % (DIGSA [7]; dosage 20 g/ha): 80%; Post-emergence action against ECHCG in % (ECHCG [8]; dosage 5 g/ha): 80%; Post-emergence action against VIOTR in % (VIOTR [10]): 80%
CN(C)C(=O)CNC(=O)c1c(C(F)F)ccc(C(=O)Nc2nnnn2C)c1Cl [Example 1-160]		100%	100%		80%		80%					80%	80%	100%						
CCn1nnnc1NC(=O)c1ccc(C(F)(F)F)c(C(=O)NCC#N)c1C [Example 2-36]		100%	100%		90%		100%	90%				100%	90%	90%	90%					
CCn1nnnc1NC(=O)c1ccc(C(F)(F)F)c(C(=O)NCC(=O)N(C)C)c1Cl [Example 2-142]			100%		100%		100%						80%	100%		80%				
CCn1nnnc1NC(=O)c1ccc(C(F)F)c(C(=O)NCC(=O)N(C)C)c1Cl [Example 2-160]		100%	100%		90%		100%					90%	80%	100%			90%			Pre-emergence action against VERPE in % (VERPE [14]): 80%
CCn1nnnc1NC(=O)c1ccc(C(F)(F)F)c(C(=O)NCC(F)(F)F)c1Br [Example 2-211]	90%	100%	100%	90%	100%	100%	80%		80%	80%		100%	80%	90%	100%	90%	80%	80%	90%	Pre-emergence action against AVEFA in % (AVEFA): 80%; Post-emergence action against ABUTH in % (ABUTH [15]; dosage 5 g/ha): 80%; Post-emergence action against PHBPU in % (PHBPU; dosage 5 g/ha): 80%; Post-emergence action against DIGSA (DIGSA [18]): 80%
CCNC(=O)c1c(OC)ccc(C(=O)Nc2nnnn2CC)c1Cl [Example 2-353]	90%	100%	100%		100%		100%			80%	100%	100%		100%		90%	100%	80%		Pre-emergence action against VIOTR in % (VIOTR [6]; dosage 20 g/ha): 90%; Post-emergence action against ABUTH in % (ABUTH [15]; dosage 5 g/ha): 90%; Post-emergence action against PHBPU in % (PHBPU; dosage 5 g/ha): 80%; Post-emergence action against VIOTR in % (VIOTR [10]): 80%
Cc1nnc(NC(=O)c2ccc(C(F)(F)F)c(C(=O)NCC3CC3)c2Br)o1 [Example 6-161]	90%	100%	100%	100%	100%	100%	80%		90%	80%		100%	90%	100%	100%	100%	90%		90%	Pre-emergence action against ECHCG in % (ECHCG [3]; 20 g/ha): 80%; Post-emergence action against ECHCG in % (ECHCG [8]; dosage 5 g/ha): 90%
Cc1nnc(NC(=O)c2ccc(C(F)(F)F)c(C(=O)NC(C)C3CC3)c2Cl)o1 (centres unmarked) [Example 6-254]	90%	100%	100%	100%	100%	80%	90%	100%	90%	80%	80%	100%		100%	100%	80%	80%	80%	80%	Pre-emergence action against AVEFA in % (AVEFA): 90%; Pre-emergence action against ECHCG in % (ECHCG [3]; 20 g/ha): 90%; Pre-emergence action against VERPE in % (VERPE [14]): 100%; Pre-emergence action against DIGSA in % (DIGSA [7]; dosage 20 g/ha): 90%; Post-emergence action against DIGSA in % (DIGSA [18]; 5 g/ha): 80%; Post-emergence action against DIGSA (DIGSA [18]): 90%
